Measured values as given in paper PMC10799935, “Discovery of a peripheral 5HT2A antagonist as a clinical candidate for metabolic dysfunction-associated steatohepatitis” (Nature Communications, 2024).
“And” between values parts separate entries of the source, which are not always exact repeats. Equal values may be shown once.

Legend:
HFD-fed C57BL/6J mice = experiment: DIO mice: intraperitoneal glucose tolerance test (IPGTT); assay type: in vivo, mouse; parameters: Mean Diff. (Vehicle vs. 11c), GTT blood glucose / Mean 2 (11c group), GTT blood glucose: unit not given here; conditions: for Mean Diff. (Vehicle vs. 11c), GTT blood glucose: Dunnett's multiple comparisons test; for Significant? (Vehicle vs. 11c), GTT blood glucose: Dunnett's test, alpha 0.05; for Mean 2 (11c group), GTT blood glucose: test details, mixed-effects model; for Blood Glucose Level 0 min / Blood Glucose Level 15 min / Blood Glucose Level 30 min / Blood Glucose Level 60 min / Blood Glucose Level 90 min / Blood Glucose Level 120 min / Blood Glucose Level AUC: GTT, PO
Description: For the glucose tolerance test, overnight fasted mice were intraperitoneally injected with 2 g/kg D-glucose (Sigma-Aldrich). Glucose concentrations were measured using a Gluco DR. TOP glucometer (Allmedicus). The AUC (area under the curve) during the GTT was calculated using GraphPad Prism 8.0 software (La Jolla, CA, USA) by the trapezoidal method.

CYP2C9 = CYP2C9 (Homo sapiens, UniProt P11712); experiment: in vitro
[1] = Hepatocyte stability test, human; assay type: in vitro ADME; conditions: both sexes, cryopreserved hepatocytes, pH 7.4, read-out: Hepatocyte stability (% remaining after 3 h)
Description: Hepatocyte incubations for the test compound (10 μM final concentration, n = 2 per each time point) were carried out in mouse, rat, dog, monkey and human cryopreserved hepatocytes, resuspended at a density of 0.5 million cells/ml of modified Krebs-Henseleit buffer (KHB). The information regarding the hepatocytes used in the experiment is as follows: liverPool® 10-donor mixed gender human (BioIVT, Cat.No. X008001, lot EAV), male cynomolgus monkey (BioIVT, Cat.No. M00305, lot COJ), male Beagle dog (BioIVT, Cat.No. M00205, lot USY), male Sprague Dawley rat (BioIVT, Cat.No. M00005, lot TQE) and male CD1 mouse (BioIVT, Cat.No.005052, lot LFF). In addition, the compound was also incubated with blank KHB. The final concentration of solvent (DMSO) was 0.1% of the final volume. The incubations were performed for 3 hours at 37°C and pH 7.4. Reactions were terminated at 0 and 180 minutes by the addition of 3 volumes of stop solution (acetonitrile/methanol (2:1, v/v) containing internal standard–diclofenac at 100 ng/ml). Samples (compound spiked buffer and compound spiked hepatocytes, as well as blank samples, i.e. hepatocytes with the same DMSO%) were then centrifuged and aliquots were transferred to 96-deep micronic tubes and frozen at -80 °C until LC-MS/MS analysis. […]

[2] = Phase 1 clinical trial, SAD (single ascending dose) study; conditions: human, in vivo

Chain of CYP2C9 (P11712 whole entry): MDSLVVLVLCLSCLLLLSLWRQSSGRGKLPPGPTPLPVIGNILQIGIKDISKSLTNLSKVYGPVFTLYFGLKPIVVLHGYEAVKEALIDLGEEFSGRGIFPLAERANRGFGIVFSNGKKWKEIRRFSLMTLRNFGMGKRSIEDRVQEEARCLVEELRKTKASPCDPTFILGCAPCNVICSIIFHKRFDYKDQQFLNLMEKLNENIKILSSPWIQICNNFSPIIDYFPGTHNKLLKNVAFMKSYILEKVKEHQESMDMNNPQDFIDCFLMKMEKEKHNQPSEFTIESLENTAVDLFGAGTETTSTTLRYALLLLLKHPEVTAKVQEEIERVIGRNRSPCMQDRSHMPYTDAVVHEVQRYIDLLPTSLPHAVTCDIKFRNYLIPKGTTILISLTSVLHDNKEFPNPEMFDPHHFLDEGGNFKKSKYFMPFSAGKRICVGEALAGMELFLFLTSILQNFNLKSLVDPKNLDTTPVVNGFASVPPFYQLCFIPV

Cc1nc2n(c(=O)c1CCN1CCC(=C3c4ccc(Cl)cc4CCc4cccnc43)CC1)CCCC2O (stereo not shown) [Compound 11c]
Mean Diff. (Vehicle vs. 11c), GTT blood glucose (HFD-fed C57BL/6J mice; 5mpk, 30 min): 41.17 | Significant? (Vehicle vs. 11c), GTT blood glucose (HFD-fed C57BL/6J mice; 5mpk, 30 min): No | Mean 2 (11c group), GTT blood glucose (HFD-fed C57BL/6J mice; 5mpk, 30 min): 575 | Mean Diff. (Vehicle vs. 11c), GTT blood glucose (HFD-fed C57BL/6J mice; 5mpk, 60 min): 150 | Significant? (Vehicle vs. 11c), GTT blood glucose (HFD-fed C57BL/6J mice; 5mpk, 60 min): Yes | Mean 2 (11c group), GTT blood glucose (HFD-fed C57BL/6J mice; 5mpk, 60 min): 473.2 | Mean Diff. (Vehicle vs. 11c), GTT blood glucose (HFD-fed C57BL/6J mice; 5mpk, 90 min): 176.5 | Significant? (Vehicle vs. 11c), GTT blood glucose (HFD-fed C57BL/6J mice; 5mpk, 90 min): Yes | Mean 2 (11c group), GTT blood glucose (HFD-fed C57BL/6J mice; 5mpk, 90 min): 359.1 | Mean Diff. (Vehicle vs. 11c), GTT blood glucose (HFD-fed C57BL/6J mice; 5mpk, 120 min): 168.6 | Significant? (Vehicle vs. 11c), GTT blood glucose (HFD-fed C57BL/6J mice; 5mpk, 120 min): Yes | Mean 2 (11c group), GTT blood glucose (HFD-fed C57BL/6J mice; 5mpk, 120 min): 270.4 | Glucose tolerance (HFD-fed C57BL/6J mice; 5 or 10 mpk, DIO mice): improved | Mean Diff. (Vehicle vs. 11c), GTT blood glucose (HFD-fed C57BL/6J mice; 10mpk, 0 min): 40.33 | Significant? (Vehicle vs. 11c), GTT blood glucose (HFD-fed C57BL/6J mice; 10mpk, 0 min): No | Mean 2 (11c group), GTT blood glucose (HFD-fed C57BL/6J mice; 10mpk, 0 min): 183.9 | Mean Diff. (Vehicle vs. 11c), GTT blood glucose (HFD-fed C57BL/6J mice; 10mpk, 15 min): 13.5 | Significant? (Vehicle vs. 11c), GTT blood glucose (HFD-fed C57BL/6J mice; 10mpk, 15 min): No | Mean 2 (11c group), GTT blood glucose (HFD-fed C57BL/6J mice; 10mpk, 15 min): 527.5 | Mean Diff. (Vehicle vs. 11c), GTT blood glucose (HFD-fed C57BL/6J mice; 10mpk, 30 min): 33.08 | Significant? (Vehicle vs. 11c), GTT blood glucose (HFD-fed C57BL/6J mice; 10mpk, 30 min): No | Mean Diff. (Vehicle vs. 11c), GTT blood glucose (HFD-fed C57BL/6J mice; 10mpk, 60 min): 136.4 | Significant? (Vehicle vs. 11c), GTT blood glucose (HFD-fed C57BL/6J mice; 10mpk, 60 min): No | Mean 2 (11c group), GTT blood glucose (HFD-fed C57BL/6J mice; 10mpk, 60 min): 486.8 | Mean Diff. (Vehicle vs. 11c), GTT blood glucose (HFD-fed C57BL/6J mice; 10mpk, 90 min): 180.6 | Significant? (Vehicle vs. 11c), GTT blood glucose (HFD-fed C57BL/6J mice; 10mpk, 90 min): Yes | Mean Diff. (Vehicle vs. 11c), GTT blood glucose (HFD-fed C57BL/6J mice; 10mpk, 120 min): 191.3 | Significant? (Vehicle vs. 11c), GTT blood glucose (HFD-fed C57BL/6J mice; 10mpk, 120 min): Yes | Mean 2 (11c group), GTT blood glucose (HFD-fed C57BL/6J mice; 10mpk, 120 min): 247.7 | Blood Glucose Level 0 min (HFD-fed C57BL/6J mice; DIO mice, 5mpk, 0 min, group mean): 206.4 mg/dL | Blood Glucose Level 0 min (HFD-fed C57BL/6J mice; DIO mice, 5mpk, 0 min, individual animals, 5 mg/kg): 241.0 mg/dL and 220.5 mg/dL and 182.0 mg/dL and 211.0 mg/dL and 157.0 mg/dL and 205.0 mg/dL and 228.0 mg/dL | Blood Glucose Level 15 min (HFD-fed C57BL/6J mice; DIO mice, 5mpk, 15 min, group mean): 542.4 mg/dL | Blood Glucose Level 15 min (HFD-fed C57BL/6J mice; DIO mice, 5mpk, 15 min, individual animals, 5 mg/kg): 629.0 mg/dL and 541.0 mg/dL and 509.0 mg/dL and 553.5 mg/dL and 596.5 mg/dL and 427.0 mg/dL | Blood Glucose Level 30 min (HFD-fed C57BL/6J mice; DIO mice, 5mpk, 30 min, group mean): 575.0 mg/dL | Blood Glucose Level 30 min (HFD-fed C57BL/6J mice; DIO mice, 5mpk, 30 min, individual animals, 5 mg/kg): 662.5 mg/dL and 628.5 mg/dL and 650.5 mg/dL and 617.5 mg/dL and 539.5 mg/dL and 470.5 mg/dL and 456.0 mg/dL | Blood Glucose Level 60 min (HFD-fed C57BL/6J mice; DIO mice, 5mpk, 60 min, group mean): 473.2 mg/dL | Blood Glucose Level 60 min (HFD-fed C57BL/6J mice; DIO mice, 5mpk, 60 min, individual animals, 5 mg/kg): 526.0 mg/dL and 500.0 mg/dL and 631.5 mg/dL and 438.0 mg/dL and 309.5 mg/dL and 481.5 mg/dL and 426.0 mg/dL | Blood Glucose Level 90 min (HFD-fed C57BL/6J mice; DIO mice, 5mpk, 90 min, group mean): 359.1 mg/dL | Blood Glucose Level 90 min (HFD-fed C57BL/6J mice; DIO mice, 5mpk, 90 min, individual animals, 5 mg/kg): 412.0 mg/dL and 393.0 mg/dL and 445.5 mg/dL and 295.0 mg/dL and 202.0 mg/dL and 352.0 mg/dL and 414.5 mg/dL | Blood Glucose Level 120 min (HFD-fed C57BL/6J mice; DIO mice, 5mpk, 120 min, group mean): 270.4 mg/dL | Blood Glucose Level 120 min (HFD-fed C57BL/6J mice; DIO mice, 5mpk, 120 min, individual animals, 5 mg/kg): 297.0 mg/dL and 295.0 mg/dL and 358.5 mg/dL and 219.0 mg/dL and 181.0 mg/dL and 242.5 mg/dL and 299.5 mg/dL | Blood Glucose Level AUC (HFD-fed C57BL/6J mice; DIO mice, 5mpk, group mean): 26885.0 mg·min/dL | Blood Glucose Level 0 min (HFD-fed C57BL/6J mice; DIO mice, 10mpk, 0 min, group mean): 183.9 mg/dL | Blood Glucose Level 0 min (HFD-fed C57BL/6J mice; DIO mice, 10mpk, 0 min, individual animals, 10 mg/kg): 113.5 mg/dL and 200.5 mg/dL and 204.0 mg/dL and 222.5 mg/dL and 179.0 mg/dL and 184.0 mg/dL | Blood Glucose Level 15 min (HFD-fed C57BL/6J mice; DIO mice, 10mpk, 15 min, group mean): 527.5 mg/dL | Blood Glucose Level 15 min (HFD-fed C57BL/6J mice; DIO mice, 10mpk, 15 min, individual animals, 10 mg/kg): 483.5 mg/dL and 423.0 mg/dL and 498.0 mg/dL and 646.0 mg/dL and 555.0 mg/dL and 559.5 mg/dL | Blood Glucose Level 30 min (HFD-fed C57BL/6J mice; DIO mice, 10mpk, 30 min, group mean): 591.4 mg/dL | Blood Glucose Level 30 min (HFD-fed C57BL/6J mice; DIO mice, 10mpk, 30 min, individual animals, 10 mg/kg): 550.5 mg/dL and 531.0 mg/dL and 653.0 mg/dL and 657.0 mg/dL and 577.0 mg/dL and 580.0 mg/dL | Blood Glucose Level 60 min (HFD-fed C57BL/6J mice; DIO mice, 10mpk, 60 min, group mean): 486.8 mg/dL | Blood Glucose Level 60 min (HFD-fed C57BL/6J mice; DIO mice, 10mpk, 60 min, individual animals, 10 mg/kg): 370.0 mg/dL and 458.5 mg/dL and 558.0 mg/dL and 603.0 mg/dL and 357.5 mg/dL and 574.0 mg/dL | Blood Glucose Level 90 min (HFD-fed C57BL/6J mice; DIO mice, 10mpk, 90 min, group mean): 365.9 mg/dL | Blood Glucose Level 90 min (HFD-fed C57BL/6J mice; DIO mice, 10mpk, 90 min, individual animals, 10 mg/kg): 283.5 mg/dL and 422.0 mg/dL and 442.0 mg/dL and 440.5 mg/dL and 227.0 mg/dL and 380.5 mg/dL | Blood Glucose Level 120 min (HFD-fed C57BL/6J mice; DIO mice, 10mpk, 120 min, group mean): 247.7 mg/dL | Blood Glucose Level 120 min (HFD-fed C57BL/6J mice; DIO mice, 10mpk, 120 min, individual animals, 10 mg/kg): 170.0 mg/dL and 260.5 mg/dL and 387.0 mg/dL and 315.5 mg/dL and 148.5 mg/dL and 204.5 mg/dL | Blood Glucose Level AUC (HFD-fed C57BL/6J mice; DIO mice, 10mpk, group mean): 28219.0 mg·min/dL | inhibition at 10 µM (CYP2C9): 3.17% | remaining at 3 h, 10 μM [1]: 94% | half-life [2]: > 10 h
